Test results: patent publication US20150274639A1, “METHODS OF USE FOR COMPOSITIONS COMPRISING A BIOCIDAL POLYAMINE” (Curza Global, LLC, priority 2013, published 2015)
Values after ≈ are worked out from the molar mass of the structure shown.

Legend:
MRSA biofilm = test: EBEC, high number biofilms on PEEK membranes (10^9 to 10^2 CFU/PEEK membrane in 24 hours); type: cell-based, methicillin-resistant Staphylococcus aureus; conditions: Staphylococcus aureus, Table 3B titled MICs, group head missing, values match EBEC
P. aeruginosa biofilm [1] = test: as above; type: cell-based; conditions: Pseudomonas aeruginosa; Table 3B titled MICs; group head missing, values match EBEC
Description: In addition to determining the MIC and the MBEC of polyamine compounds against planktonic bacteria and low number biofilms, our group wanted to determine the efficacy of polyamine compounds against high number biofilms. To do so, biofilms were grown on the surface of polyetheretherketone (PEEK) membranes using a membrane biofilm reactor. This reactor is similar to the CDC biofilm reactor, but rather than growing biofilms on coupon surfaces, the reactor was modified to hold PEEK membranes. In short, to grow biofilms within this system, 500 mL of brain heart infusion (BHI) broth were inoculated with 1 mL of a 0.5 McFarland. The reactor was placed on a hot plate set at 34° C. and the bacteria were grown under batch conditions for 24 hours. Following this protocol, biofilms typically grow to 10^9 CFU/PEEK membrane. […] A solution of 10% BHI was then flowed through the reactor at a rate of 6.94 mL/min for an additional 24 hours. PEEK membranes were then removed and placed into 2 mL of CAMHB that contained a desired concentration of polyamine compound or antibiotic. The EBEC was defined as the concentration of antimicrobial required to reduce a biofilm from approximately 10^9 CFU/PEEK membrane to approximately 10^2 CFU/PEEK membrane in a 24-hour period.

MRSA = test: MIC against MRSA as defined by CLSI (FIG. 25 series); type: cell-based, methicillin-resistant Staphylococcus aureus; conditions: Staphylococcus aureus
Description: To determine the MIC of the polyamine chains alone and the synthesized compounds against MRSA and P. aeruginosa ATCC 27853, a modified protocol from the Clinical and Laboratory Standards Institute (CLSI) guideline M26-A was used. […] All data was collected using cation adjusted MHB for standardization.
As mentioned, MRSA and P. aeruginosa ATCC 27853 were grown on Columbia blood agar plates prior to experimentation. From the blood agar plates, a 0.5 McFarland standard was made of each isolate. This equated to approximately 5×10^7 cells/mL for the MRSA isolate and approximately 3×10^7 cells/mL for the P. aeruginosa ATCC 27853 isolate. Of the 0.5 McFarland stock solution, 50 μL were added to MHB. […] All tests were performed such that a final volume of 5 mL of MHB were obtained. This provided a final bacterial concentration of approximately 5×10^5 cells/mL.
Each sample was incubated in glass test tubes at 37° C. for 24 hours, then plated in duplicate on tryptic soy agar (TSA) using a 10-fold dilution series. TSA plates were further incubated 24 hours at 37° C. The number of colony forming units (CFU) that grew were counted in order to calculate the number of bacteria that were present per mL in the original MHB solution.

P. aeruginosa biofilm [2] = test: MBEC, MBEC Inoculation Tray by Innovotech (to 10^2 CFU/peg in 24 hours); type: cell-based; conditions: Pseudomonas aeruginosa; Table 3A titled MICs; group head missing, values match MBEC; read-out: MIC, P. aeruginosa (second P. aeruginosa)
From the text: To determine the MBEC of each polyamine compound, the MBEC Inoculation Tray by Innovotech, formerly known as the Calgary biofilm device, was used. Within this device, biofilms grow on the surface of polystyrene pegs, 96 of which are attached to a lid. These pegs are inserted into a flat bottom 96-well plate. In this instance, the MBEC of a molecule was defined as the concentration of compound (in μg/mL) required to reduce 10^5 or 10^6 CFU/peg (biofilm levels varied by isolate) to 10^2 CFU/peg in a 24-hour period.
Following the manufacturer's guidelines, biofilms were grown on the surface of each peg by first making a 0.5 McFarland of each isolate. The 0.5 McFarland was diluted 1:100 in CAMHB. Into each well of a flat bottom 96-well plate, 150 μL of broth were pipetted. The plate was shaken at 100 rpm for 24 hours (P. aeruginosa and A. baumannii) or 48 hours (MRSA). The pegs were then placed into a separate flat bottom 96-well plate for 10 seconds with 200 μL of phosphate buffered saline (PBS) in each well to remove nonadherent cells. The lid was then placed into a 96-well plate that contained varying concentrations of antimicrobial with 200 μL per well. The plate was incubated for 24 hours at 37° C. after which time 100 μL of broth were plated on TSA. TSA plates were incubated 24 hours at 37° C. and the number of CFU counted to calculate the CFU/peg. […]

| SMILES | MIC (MRSA biofilm) | MIC (P. aeruginosa biofilm [1]) | MIC (MRSA) | MIC (P. aeruginosa biofilm [2]) |
| --- | --- | --- | --- | --- |
| NCCCNCCCNCc1cccc(CNCCCNCCCN)c1 [CZ-25] | > 5000 µg/mL | > 5000 µg/mL | 45 µg/mL (≈ 123 µM) | > 500 µg/mL |
| NCCCNCCCNCc1cc(CNCCCNCCCN)cc(CNCCCNCCCN)c1 [CZ-52] | 250 µg/mL (≈ 492 µM) | > 5000 µg/mL | 3 µg/mL (≈ 5.91 µM) | 400 µg/mL (≈ 788 µM) |
